# Assay results published in patent US11639384B2, “Treatment of pediatric BCP-ALL patients with an anti-KIR antibody” (UNIVERSITY CHILDREN'S HOSPITAL TÜBINGEN, priority 2014, dated 2023).
# Entries after “also recorded” stand apart in the source; their conditions may differ. Where two headings read alike, the source gives them in different places.
# Assays:
# KIR2DL2/3 [1] = details: cited from earlier work
# [2] = tested on: HLA-Cw3+ and HLA-Cw4+ targets; details: cited from earlier work
# AML [3] = details: cited from earlier work
# KIR2DL1 and KIR2DL2/3 [4] = details: literature and WO 2006/003179; cited from earlier work
# [5] = WO 2006/003179; cited from earlier work
# AML [6] = test: Phase 1 overall survival of AML patients; format: in vivo, human; details: 1 and 3 mg/kg
# KIR2DS3 = KIR2DS3 (Homo sapiens, UniProt Q14952); details: cited from earlier work
# KIR2DS1 and KIR2DS2 = details: cited from earlier work
# KIR2DL2/3 [7] = test: KIR receptor occupancy on cells from KIR2DL2/3+ patients; format: in vivo, human
# KIR receptor = details: cited from earlier work
# KIR2DS4 = KIR2DS4 (Homo sapiens, UniProt P43632); details: cited from earlier work
# BM-derived NK cells = test: In vivo treatment with 5-aza-cytidine: NK cell phenotype and subsets in BM; parameters: species or system huNSG mice
# [8] = Troetel et al., 1972; cited from earlier work
# pediatric BCP-ALL = test: In vivo treatment with 5-aza-cytidine: leukemic burden in BM; details: non-humanized control NSG mice, low-dose regimen
# CD45+ cells = test: In vivo treatment with 5-aza-cytidine: BM cytotoxicity; details: low-dose, long-term treatment; huNSG and non-humanized control mice
# KIR2DL1 and KIR2DL2/3 [9] = test: KIR binding specificity of anti-KIR mAbs: inhibitory KIR2DL; parameters: species or system human
# NALM-16 cells = test: In vitro cytotoxicity of sorted KIR+ NKAES cells with KIR blockade; format: cell-based; details: 15 μg/ml, NALM-16, E:T ratio 2:1
# Procedure: Target cells or cell lines were labeled with 0.5 μM CFSE (Vybrant CFDA SE Cell Tracer Kit®, Invitrogen, Germany) 1 day prior to use. NKAES cells were thawed, cultivated overnight and subsequently sorted into KIR^+ and KIR^− subsets following labeling with anti-CD158a (clone HP3E4 recognizing KIR2DL1/S1/S4), anti-CD158b (clone GL183 recognizing KIR2DL2/S2/L3) and anti-CD158e (clone DX9 recognizing 3DL1). KIR^+ and KIR^− NK cells were used as effector cells and cultured overnight in the presence of 100 IU/ml IL2. Co-incubation with NALM-16 cells was performed in triplicates at ratios between 10:1 and 2:1 for 5 h. Following staining with ARD-Ax350, cells were washed and analyzed. To correct for spontaneously occurring cell death, target cell monoculture controls were included in every experiment. The percentage of specific cytotoxicity was calculated as follows: (% CFSE^+ARD^+ dead targets−% CFSE^+ARD^+ spontaneously dead targets)/(100−% CFSE^+ ARD^+ spontaneously dead targets)×100%.
# In vitro cytotoxicity was assayed as described in Example 1. […] Following staining with ARD-Ax350, cells were washed and analyzed.
# inhibitory KIR = test: Lirilumab treatment of huNSG mice: inhibitory KIR expression; format: in vivo; details: 250 μg/mouse, preliminary data
# Procedure: HuNSG mice were treated 14 days before the injection of leukemia cells with a complex of IL15/IL15Ra. One day prior to blasts injection, NK cells were additionally activated by intravenous injection of polyI:C and IPH2102. On the following day blasts were injected, and after 24 h the extent of tumor burden was quantified using 8-11 color flow cytometry.
# BCP-ALL sample P23T = test: Lirilumab in NSG mice with adoptively transferred KIR-KIRL-matched NK cells: tumor burden; format: in vivo; details: P23T blasts, KIR-KIRL-matched activated NK cells, 2250 μg/mouse i.v., 24 h, preliminary data
# Procedure: Naïve NSG mice were injected with blasts, followed by the injection of activated NK cells and subsequent intravenous injection of IPH2102 (2250 μg/mouse). Mice were euthanized after 24 h to quantify tumor burden. […] Data depicted in FIGS. 13B and D represent preliminary data performed in a small number of mice. The data provided in Examples 1-4 support the concept that NK cell immune-therapy, ideally performed with KIR-KIRL-mismatched donors, should have a role in the treatment of pediatric BCP-ALL disease.
# Sequence of KIR2DS4 (P43632 22-304): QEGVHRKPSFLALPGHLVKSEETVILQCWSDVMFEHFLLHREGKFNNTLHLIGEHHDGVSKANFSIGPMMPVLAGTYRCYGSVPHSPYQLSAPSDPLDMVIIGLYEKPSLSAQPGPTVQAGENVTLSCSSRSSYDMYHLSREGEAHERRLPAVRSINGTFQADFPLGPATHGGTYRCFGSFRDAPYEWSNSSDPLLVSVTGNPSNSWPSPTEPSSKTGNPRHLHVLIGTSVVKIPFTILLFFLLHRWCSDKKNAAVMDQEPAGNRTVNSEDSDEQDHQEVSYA
# Sequence of KIR2DS3 (Q14952 22-304): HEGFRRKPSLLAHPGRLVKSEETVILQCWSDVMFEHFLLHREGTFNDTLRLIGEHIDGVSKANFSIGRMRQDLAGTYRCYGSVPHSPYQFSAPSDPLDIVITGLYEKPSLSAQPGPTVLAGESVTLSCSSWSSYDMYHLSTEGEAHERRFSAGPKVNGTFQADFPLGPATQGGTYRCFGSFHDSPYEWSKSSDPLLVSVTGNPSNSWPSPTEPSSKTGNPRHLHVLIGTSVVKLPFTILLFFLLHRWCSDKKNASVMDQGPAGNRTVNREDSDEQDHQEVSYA
molecule,measurement,setting,value
"1-7F9: KIR2DL-cross-reactive fully human IgG4 kappa mAb; H chain SEQ ID NO:3, L chain SEQ ID NO:5",blocking of binding of group 1 HLA-C (HLA-Cw3) to KIR2DL2/3,KIR2DL2/3 [1],blocks
same,reconstitution of cell lysis by NK cells against Cw4-positive targets,"[2]; WO 2005/003168, Example 4",almost completely reconstitutes lysis
same,potentiation of NK cell cytolytic activity on HLA-Cw3+ and HLA-Cw4+ targets,[2]; WO 2005/003168,strongly potentiate NK cell cytolytic activity
same,overall survival (OS),"AML [3]; 6 AML patients, dosages of 1 and 3 mg/kg",29.7 months
same,overall survival (OS),"AML [3]; 16 AML patients, <0.3 mg/kg",11.8 months
same,KIRs bound / recognized,KIR2DL1 and KIR2DL2/3 [4],binds specifically to both KIR2DL1 and KIR2DL2/3
same,IgG4 half-molecule formation,[5],did not reveal half-molecule formation
same,improvement of OS versus <0.3 mg/kg group,AML [6],~18 months
same,binding to KIR2DS3,KIR2DS3,"does not bind to the stimulatory KIR, KIR2DS3"
same,binding to KIR2DS1 and KIR2DS2,KIR2DS1 and KIR2DS2,bind to KIR2DS1 and KIR2DS2
same,receptor occupancy,"KIR2DL2/3 [7]; 0.2 mg/kg and 2 mg/kg, 28-day period",good receptor occupancy throughout the 28-day period
same,duration of full (>90%) KIR receptor occupancy,KIR receptor; 0.075 mg/kg,1 week
same,duration of full (>90%) KIR receptor occupancy,KIR receptor; 1 mg/kg,2 weeks
same,duration of KIR saturation (>30% KIR occupancy),KIR receptor; 3 mg/kg,24-32 weeks
same,duration of full (>90%) KIR receptor occupancy,KIR receptor; 3 mg/kg,at least 4 weeks
same,binding to KIR2DS4,KIR2DS4,"does not bind to the stimulatory KIR, KIR2DS4; also recorded: none of 1-7F9, lirilumab and 1-4F1 binds to KIR2DS4"
Nc1ncn([C@@H]2O[C@H](CO)[C@@H](O)[C@H]2O)c(=O)n1 [5-aza-cytidine],"expression of inhibitory (KIRs, NKG2A) and activating (NKp44, NKG2D) NK cell receptors","BM-derived NK cells; BM-derived NK cells of huNSG mice, low doses",did not significantly modulate the expression; also recorded: does not significantly alter the expression
same,numbers of immature NK cell precursors and mature NK cell subsets in BM,"BM-derived NK cells; huNSG mice, low-dose long-term treatment",distinctly higher numbers of both immature and mature NK cell subsets; also recorded: clearly higher numbers; also recorded: induces the expression of BM-residing NK cell precursors
same,half-life,[8],less than 4 h
same,direct cytotoxic effect on pediatric BCP-ALL,pediatric BCP-ALL,largely excluded; also recorded: does not exert relevant direct cytotoxic effects
same,BM cytotoxicity: human and murine CD45+ cells,CD45+ cells,statistically insignificant reduction; also recorded: does not exert statistically relevant BM cytotoxicity
"lirilumab: 1-7F9(S241P) variant, human IgG4 anti-KIR2DL1/2/3 mAb; H chain SEQ ID NO:4, L chain SEQ ID NO:5",effect of S241P mutation on affinity for KIR2DL1 and KIR2DL2/3,KIR2DL1 and KIR2DL2/3 [9],equalizes the affinity for KIR2DL1 and KIR2DL2/3
same,specificity and affinity of binding to KIR targets,KIR2DL1 and KIR2DL2/3 [9]; inferred from identical CDRs and variable regions,the same as that exhibited by 1-7F9
same,effect on cytotoxicity of KIR+ NK cells of KIR-KIRL-matched donors,NALM-16 cells,distinctly enhanced
same,effect on cytotoxicity of KIR+ NK cells of KIR-KIRL-mismatched donors,NALM-16 cells,did not respond to inhibitory KIR blockade
same,levels of inhibitory KIR expression,inhibitory KIR,very low levels; also recorded: barely detectable levels
same,levels of inhibitory KIR expression,inhibitory KIR; listed as lirilumab (IPH2102),negligible
same,binding to KIR2DS1 and KIR2DS2,KIR2DS1 and KIR2DS2,bind to KIR2DS1 and KIR2DS2
same,KIR receptor occupancy,"KIR2DL2/3 [7]; 1 mg/kg, over a 28-day period",~100%
same,binding to KIR2DS4,KIR2DS4,"none of 1-7F9, lirilumab and 1-4F1 binds to KIR2DS4"
same,tumor burden,BCP-ALL sample P23T,significant reduction of tumor burden
